From patent US11518805B2, “Binding inhibitor between TCTP dimer type IgE-dependent histamine releasing factor and receptor thereof, and use thereof” (EWHA UNIVERSITY—INDUSTRY COLLABORATION FOUNDATION, priority 2014, dated 2022)
“Also recorded” adds a separate entry of the source.

Legend:
HRF [1] = assay: HRF binding affinity of heptamer peptides by ELISA (alanine scan of p2); conditions: p2 and its substituted heptamers m1-m7
Text: In order to confirm the residues involved in the HRF binding affinity of the heptamer peptide of the present invention, the amino acid sequence of p2 was substituted with alanine (A), and only m5 was substituted with lysine (K). As a result, the following sequences were established: […]

Del-N11dTCTP = biological target: T1, Del-N11dTCTP (Rattus norvegicus, UniProt P63029); assay: Inhibition of Del-N11dTCTP-induced IL-8 secretion by domain peptides in BEAS-2B cells; assay type: cell-based; conditions: Del-N11dTCTP 70 nM, peptide molar ratios 0~1, 24 hours, ELISA
T1 construct: made in house
T1 sequence (P63029 11-172 limits assumed): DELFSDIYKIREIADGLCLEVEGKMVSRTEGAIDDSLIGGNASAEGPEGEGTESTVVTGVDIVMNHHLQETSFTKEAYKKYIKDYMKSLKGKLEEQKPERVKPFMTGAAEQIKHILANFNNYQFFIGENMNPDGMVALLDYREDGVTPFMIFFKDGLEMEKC
Method: To investigate inhibitory effect of FL domain, Helix 2 domain, and Helix 3 domain on Del-N11dTCTP, the inventors synthesized FL domain (Ac-[…]-NH2) (SEQ. ID. NO: 1), Helix 2 domain (Ac-[…]-NH2) (SEQ. ID. NO: 11), and Helix 3 domain (Ac-[…]-NH2) (SEQ. ID. NO: 22) by using the synthetic peptides prepared with NH2-terminal acetylation and COOH-terminal amidation, followed by purification.
Particularly, BEAS-2B cells were treated with Del-N11dTCTP (70 nM) by the same manner as described in Experimental Example 1. At this time, the synthesized FL domain, Helix 2 domain, and Helix 3 domain were treated to the cells at different molar ratios (0˜1), followed by reaction for 30 minutes. Then, Del-N11dTCTP was added thereto. 24 hours later, the supernatant was obtained and the released IL-8 was quantified by ELISA.

HRF [2] = assay: Phage clone ELISA for binding to immobilized HRF; conditions: wells coated with HRF or BSA (control)
Method: Particularly, HRF was dissolved in a coating buffer (0.1 M NaHCO 3, pH 8.6) at the concentration of 20 μg/ml, which was loaded in a polystyrene microtiter plate (50 ? /well), followed by coating at 4° C. for overnight and blocking non-specific binding with BSA. The plate was washed with 0.1% Tween/TBS (TBST) 6 times. […] The plate stood at room temperature for 1 hour. TBST was added thereto, and the plate stood for 5 minutes, followed by washing. The washing was performed once after one round of panning, 5 times after 2 and 3 rounds of panning, and 10 times after 4 rounds of panning. 50 ? of glycine/HCl buffer (pH 2.2) was added thereto, which stood for 5 minutes. Then, phages were eluted, and then neutralization was induced with 8 ? of 1 M Tris-HCl (pH 9.1). The eluted phage solution was added to 20 ? of ER2537 culture medium (OD600=0.5˜1), followed by culture in a 37° C. shaking incubator (rpm=200) for 2 hours. 100 ? of SB medium was added thereto, followed by culture for overnight with shaking (250 rpm). The culture solution was centrifuged at 10,000 rpm (4° C.) for 15 minutes. 100 ? of the obtained supernatant was added with 30 ? of 5×PEG/NaCl (20% PEG(w/v), 15% NaCl (w/v)), followed by dissolving for 5 minutes. The mixture was then left in ice for 30 minutes. The mixture was centrifuged at 10,000 rpm (4° C.) for 20 minutes and the supernatant was discarded. The obtained pellet was suspended in 1 ? of 3% BSA/TBS. After performing centrifugation at 14,000 rpm for 5 minutes, the supernatant was obtained and used for panning. Affinity purification and phage replication were repeated 4 times, followed by eluting phages. Each phage clone was obtained from the proper plate of the eluted phage, followed by ELISA. Those phage clones showing a specific affinity to HRF were separated, followed by sequencing to confirm the peptide sequence. Those phage display peptides showing dominant binding to HRF were selected and listed below:
That is, each phage plaque was added to 1 ? of the ER2537 culture medium (OD600=0.5˜1) cultured in SB medium, followed by culture in a 37° C. incubator (rpm=250) for 5 hours. 100 ? of each culture solution was added to 900 ? of SB medium, followed by culture for overnight. […]
Each phage solution separated above was diluted in an equal volume of 6% BSA/PBS, and 50 ? of the diluted solution was added to each well of the plastic well plate coated with HRF or BSA (control), which stood for 2 hours. […] After adding peroxidase substrate solution thereto (100 ? /well), OD405 was measured with an ELISA reader.
HRF was diluted serially by ⅕ fold each from the concentration of 20 μg/ ? […] The phage 2 solution diluted serially by ⅕ fold each (½, 1/10, 1/50, 1/250, and 1/1250 of the stock solution) was added thereto, followed by ELISA and OD405 was measured.

BEAS-2B cells [3] = assay: IL-8 secretion by f-TCTP, Δ-dTCTP and Del-N11dTCTP in BEAS-2B cells; assay type: cell-based; conditions: protein at 1, 5 or 10 μg/ml, 24 hours, ELISA
Method: (§1) To investigate the IL-8 and GM-CSF secretory activity of f-TCTP, Δ-dTCTP, and Del-N11dTCTP in BEAS-2B cells, the present inventors compared the activity of f-TCTP, Δ-dTCTP, and Del-N11dTCTP by measuring the secretion of IL-8 in BEAS-2B cells.
(§2) Particularly, BEAS-2B cells were cultured in a 48-well plate until the confluency reached to 70%. Then, the cells were washed with 1% penicillin-streptomycin/BEBM (Clonetics) twice. Each recombinant protein of the Δ-dTCTP separated in Example 1 of the invention, and the f-TCTP and Del-N11dTCTP constructed by the method described in Korean Patent Application No. 2006-0007663 was added thereto at the concentration of 1 μg/ ? , 5 μg/ ? , or 10 μg/ ? 24 hours later, the supernatant was obtained and the released IL-8 and GM-CSF were quantified by ELISA.

BEAS-2B cells [4] = assay: GM-CSF secretion by f-TCTP, Δ-dTCTP and Del-N11dTCTP in BEAS-2B cells; assay type: cell-based; conditions: protein at 1, 5 or 10 μg/ml, 24 hours, ELISA
Method: as §1, §2

[5] = tested on: dTBP2 (dTCTP binding peptide 2); assay: Affinity of TCTP proteins to immobilized biotinylated dTBP2 (ELISA); conditions: biotinylated dTBP2 0.01-10 μm on streptavidin plate; protein 0.2 μg/ml; ELISA 450/570 nm
Method: To investigate the affinity to dTBP2 of f-TCTP, Δ-dTCTP, and Del-N11dTCTP of the present invention, biotin was conjugated to the COOH-terminus of dTBP2 known to bind to HRF, followed by purification. The purified protein was immobilized in the plastic well coated with streptavidin, to which f-TCTP, Δ-dTCTP, and Del-N11dTCTP were added. Then, the binding strength of each protein was investigated.
Particularly, 50 ? of the biotinylated dTBTP2 dissolved in a buffer (TBS [25 mM Tris, 150 mM NaCl, pH 7.2], 0.1% BSA, 0.05% Tween-20) at different concentrations of 0.01, 0.1, 1, and 10 μm was added to Reacti-Bind Streptavidin Coated Polystyrene Plates (PIERCE), followed by reaction at room temperature for 2 hours. The plate was washed with a washing buffer three times. Each of f-TCTP, Δ-dTCTP, and Del-N11dTCTP was dissolved in TBS at the concentration of 0.2 μg/ ? . 60 ? of the mixture was added to each well of the plate, followed by reaction for 1 hour. The plate was washed with a washing buffer three times. 100 ? of anti-HRF rabbit antibody (Bio-Rad) diluted in a buffer (1:2000) was added to each well of the plate, which stood at room temperature for 30 minutes. The plate was washed with a washing buffer three times and with TBS once, to which HRP-conjugated anti-rabbit antibody (1:2000) was added (100 ? /well), which stood at room temperature for 30 minutes. The plate was washed with a washing buffer three times and with TBS once, to which […] (PIERCE), the peroxydase substrate solution, was added (100 ? /well). Color development was measured at 450 nm and 570 nm using an ELISA reader (Bio-Rad), and affinity was determined by the difference.

## AYVYPSM [m1]
HRF [1]
  HRF binding affinity (rank order): p2, m6>m7>m3>m2>fm5>M1>m4

## Ac-KPERVKPFMTGAAEQIKHILANFN-NH2 [Helix 3 domain, ID; NO: 22]
Del-N11dTCTP
  inhibition of IL-8 secretion induced by Del-N11dTCTP: inhibited more strongly by FL domain and Helix 2 domain than by Helix 3 domain

## LVTYPLP (IgE-dependent histamine-releasing factor binding peptide) [ph1, ID; NO: 23]
HRF [2]
  binding of phage clone to HRF (ELISA, OD405): specifically bind to HRF

## WAVYPSM [m2]
HRF [1]
  HRF binding affinity (rank order): p2, m6>m7>m3>m2>fm5>M1>m4

## WEFPGWM (IgE-dependent histamine-releasing factor binding peptide3) [ph4, ID; NO: 25]
HRF [2]
  binding of phage clone to HRF (ELISA, OD405): specifically bind to HRF

## WYAYPSM [m3]
HRF [1]
  HRF binding affinity (rank order): p2, m6>m7>m3>m2>fm5>M1>m4

## WYVAPSM [m4]
HRF [1]
  HRF binding affinity (rank order): p2, m6>m7>m3>m2>fm5>M1>m4

## WYVYKSM [m5]
HRF [1]
  HRF binding affinity (rank order): p2, m6>m7>m3>m2>fm5>M1>m4

## WYVYPAM [m6]
HRF [1]
  HRF binding affinity (rank order): p2, m6>m7>m3>m2>fm5>M1>m4

## WYVYPSA [m7]
HRF [1]
  HRF binding affinity (rank order): p2, m6>m7>m3>m2>fm5>M1>m4

## f-TCTP: full-length TCTP, monomer form (SEQ. ID. NO: 17)
BEAS-2B cells [3]
  secretion of IL-8: Del-N11dTCTP was superior to f-TCTP and Δ-dTCTP
BEAS-2B cells [4]
  secretion of GM-CSF: Del-N11dTCTP was superior to f-TCTP and Δ-dTCTP
[5]
  affinity to dTBP2: Del-N11dTCTP had higher dTBP2 affinity than f-TCTP and Δ-dTCTP

B1: Δ-dTCTP: dimer form of FL domain-deleted TCTP (protein)
chain: MIIYRDLISHDEMFSDIYKIREIADGLCLEVEGKMVSGGITGVDIVMNHHLQETSFTKEAYKKYIKDYMKSIKGKLEEQRPERVKPFMTGAAEQIKHILANFKNYQFFIGENMNPDGMVALLDYREDGVTPYMIFFKDGLEMEKCLEHHHHHH
BEAS-2B cells [3]
  secretion of IL-8: Del-N11dTCTP was superior to f-TCTP and Δ-dTCTP
BEAS-2B cells [3]; listed as A-dTCTP
  secretion of IL-8: could not induce IL-8 secretion
BEAS-2B cells [4]
  secretion of GM-CSF: Del-N11dTCTP was superior to f-TCTP and Δ-dTCTP
[5]
  affinity to dTBP2: low affinity; also recorded: Del-N11dTCTP had higher dTBP2 affinity than f-TCTP and Δ-dTCTP
